In ChEMBL document CHEMBL2046425, “Neamphamide B, new cyclic depsipeptide, as an anti-dormant mycobacterial substance from a Japanese marine sponge of Neamphius sp” (2012):
Converted amounts (≈) assume the structure as drawn.

Assays:
[1] = system: Mycolicibacterium smegmatis; assay: Antimicrobial activity against Mycobacterium smegmatis under aerobic condition for 36 hrs by MTT assay; type: functional
[2] = system: Mycolicibacterium smegmatis; assay: Antimicrobial activity against Mycobacterium smegmatis under dormancy-inducing hypoxic condition for 96 hrs by MTT assay; type: functional

Structure (SMILES): COC(c1ccc(O)cc1)C1NC(=O)[C@H](CCC(N)=O)N(C)C(=O)[C@H](CC(C)C)NC(=O)[C@@H](CCCNC(=N)N)NC(=O)[C@@H]([C@@H](C)O)NC(=O)[C@H](NC(=O)C(NC(=O)[C@H](O)[C@H](O)[C@H](CCCNC(=N)N)NC(=O)[C@@H](CC(N)=O)NC(=O)C(C)C(O)C(C)CC(C)C)C(C)C(C)C(N)=O)[C@@H](C)OC(=O)[C@@H]2CCCCN2C1=O (some centres not stated) [NEAMPHAMIDE B]
- MIC [1]: 1.56 µg/mL (≈ 0.991 µM)
- MIC [2]: 1.56 µg/mL (≈ 0.991 µM)
